# Test system: Bmi-1 protein
# Experiment: Sandwich ELISA Assay: Bmi-1 protein level in HT-1080 cells treated with test compounds
# Format: cell-based
# Experimental: Cell Seeding and Compound Treatment (Day 1):
# HT-1080 cells were seeded at 8000 cells/well (50 μL) in 96-well tissue culture plates. After the cells became adherent (3-4 hours), 2× diluted stocks of test compounds in 50 μL DMEM containing 1% DMSO (final DMSO concentration was 0.5%) were added and the plates were incubated at 37° C. under 5% CO2 for 40-48 hours.
# ELISA Plate First Antibody Preparation (Day 2):
# The First Antibody (Millipore Mouse, monoclonal to mouse Bmi-1, clone F6, catalog #05-637) diluted to 2 μg/mL in PBS was added (100 μL) to each well of a Nunc MaxiSorp 96-well ELISA plate. The plate was covered with a plate seal and allowed to stand overnight.
# Cell Lysate Preparation (Day 3):
# Fresh Lysis buffer (1×) was prepared on the day of the assay as follows: 1 mM EDTA, 150 mM NaCl, 0.5% Triton-X 100, 10 mM NaF, 20 mM B-Glycerophosphate, 1 mM DTT (in PBS, pH 7.2-7.4) and HALT protease inhibitor cocktail (1×) (Pierce #78410).
# Lysis Buffer (1×, 40 μL) was added to each well and the plate was shaken for 5-10 minutes on an orbital shaker to allow cell lysis, then diluent (1% BSA in PBS in 0.5% NP40) (100 μL) was added to each well.
# A standard curve was prepared at the following Bmi-1 concentrations: 8000, 4000, 2000, 1000, 500, 250, 125 and 0 pg/mL. The Bmi-1 Recombinant Protein Standard (Novus Biologicals PCGF4 Recombinant Protein (P01), catalog # H00000648-P01) used to prepare the standard curve was stored at −80° C. On first thaw, the Recombinant Protein Standard was diluted to 10 μg/μL in Blocking Buffer (1% BSA in PBS; BSA: Fisher Scientific Catalog #1600-100). Aliquots were taken and refrozen at −80° C. The aliquots may be kept at 4° C. and reused after first thaw, but only within 1-2 weeks. The Recombinant Protein Standard contains a GST-fusion tag that appears at approximately 70 Kda on Western Blot.
# The prepared ELISA plate was washed 3× with Wash Buffer (0.05% Tween-20 in PBS). The final wash was removed from the plate and the plate was blotted dry. Blocking Buffer (300 μL) (1% BSA in PBS) was added to each well. The plate was covered with a plate seal and incubated at room temperature for 1 hour. The blocked plate was washed 3× with Wash Buffer, then the final wash was removed and the plate was blotted dry. The previously prepared samples and standards were added (100 μL/well) and the plate was covered with a plate seal and incubated at 4° C. overnight.
# The prepared ELISA plate was removed from incubation and allowed to stand at room temperature for 30 minutes, then washed and blotted dry. The Second Antibody (Cell Signaling Rabbit anti-Bmi-1, Cat# 2830) diluted to 1:600 in Blocking Buffer was added (100 μL) to each well, except as needed for background control wells. The plate was covered with a plate seal and incubated for 1.5 hrs at room temperature.
# The ELISA plate was washed and blotted dry as previously described. The Third Antibody (Cell Signaling HRP conjugated anti-rabbit IgG (CellSignaling, Cat#:7074) diluted to 1:300 in Blocking Buffer was added (100 μL) to each well, except as needed for background control wells. The plate was incubated for 1 hr at room temperature.
# The plate was washed and blotted dry, then a previously prepared TMB substrate (TMB substrate kit, Pierce catalog #34021) (prepared by mixing kit reagents 1:1) (100 μL) was added per well. The plate was incubated for 20-30 minutes at room temperature in the dark, then Stop Solution (2 M sulfuric acid in water) (50 μL) was added per well. The plates were read at OD450 (experimental) and OD570 (reference).
row,EC50 [nM],SMILES
1,10 to 100,"CCc1nc2cc(F)ccc2n1-c1nc(N)nc(Nc2ccc(OC(F)F)cc2)n1 [Cpd 59, N-[4-(difluoromethoxy)phenyl]-6-(2-ethyl-5-fluoro-1H-benzimidazol-1-yl)-1,3,5-triazine-2,4-diamine]"
2,10 to 100,"CCc1nc2cc(F)ccc2n1-c1nc(N)nc(Nc2ccc(OC(F)F)c(F)c2)n1 [Cpd 60, N-[4-(difluoromethoxy)-3-fluorophenyl]-6-(2-ethyl-5-fluoro-1H-benzimidazol-1-yl)-1,3,5-triazine-2,4-diamine]"
3,10 to 100,"Nc1nc(Nc2ccc(C(F)(F)F)cc2)nc(-c2c(C(F)(F)F)nc3ccccn23)n1 [Cpd 61, 6-[2-(trifluoromethyl)imidazo[1,2-a]pyridin-3-yl]-N-[4-(trifluoromethyl)phenyl]-1,3,5-triazine-2,4-diamine]"
4,10 to 100,"Nc1nc(Nc2ccc(C(F)(F)F)cc2)nc(-n2c(C3CC3)nc3ccc(F)cc32)n1 [Cpd 62, 6-(2-cyclopropyl-6-fluoro-1H-benzimidazol-1-yl)-N-[4-(trifluoromethyl)phenyl]-1,3,5-triazine-2,4-diamine]"
5,10 to 100,"Nc1nc(Nc2ccc(OC(F)F)cc2)nc(-n2c(C3CC3)nc3ccc(F)cc32)n1 [Cpd 63, 6-(2-cyclopropyl-6-fluoro-1H-benzimidazol-1-yl)-N-[4-(difluoromethoxy)phenyl]-1,3,5-triazine-2,4-diamine]"
6,10 to 100,"Nc1nc(Nc2ccc(OC(F)F)c(F)c2)nc(-n2c(C3CC3)nc3ccc(F)cc32)n1 [Cpd 64, 6-(2-cyclopropyl-6-fluoro-1H-benzimidazol-1-yl)-N-[4-(difluoromethoxy)-3-fluorophenyl]-1,3,5-triazine-2,4-diamine]"
7,100 to 3000,"Nc1nc(Nc2ccc(C(F)(F)F)cc2)nc(-n2c(C3CC3)nc3cc(F)ccc32)n1 [Cpd 65, 6-(2-cyclopropyl-5-fluoro-1H-benzimidazol-1-yl)-N-[4-(trifluoromethyl)phenyl]-1,3,5-triazine-2,4-diamine]"
8,10 to 100,"Nc1nc(Nc2ccc(OC(F)F)cc2)nc(-n2c(C3CC3)nc3cc(F)ccc32)n1 [Cpd 66, 6-(2-cyclopropyl-5-fluoro-1H-benzimidazol-1-yl)-N-[4-(difluoromethoxy)phenyl]-1,3,5-triazine-2,4-diamine]"
9,100 to 3000,"Nc1nc(Nc2ccc(OC(F)F)c(F)c2)nc(-n2c(C3CC3)nc3cc(F)ccc32)n1 [Cpd 67, 6-(2-cyclopropyl-5-fluoro-1H-benzimidazol-1-yl)-N-[4-(difluoromethoxy)-3-fluorophenyl]-1,3,5-triazine-2,4-diamine]"
10,10 to 100,"CCc1nc2c(F)cccc2n1-c1nc(N)nc(Nc2ccc(C(F)(F)F)cc2)n1 [Cpd 68, 6-(2-ethyl-4-fluoro-1H-benzimidazol-1-yl)-N-[4-(trifluoromethyl)phenyl]-1,3,5-triazine-2,4-diamine]"
11,10 to 100,"CCc1nc2c(F)cccc2n1-c1nc(N)nc(Nc2ccc(OC(F)F)cc2)n1 [Cpd 69, N-[4-(difluoromethoxy)phenyl]-6-(2-ethyl-4-fluoro-1H-benzimidazol-1-yl)-1,3,5-triazine-2,4-diamine]"
12,10 to 100,"CCc1nc2c(F)cccc2n1-c1nc(N)nc(Nc2ccc(OC(F)F)c(F)c2)n1 [Cpd 70, N-[4-(difluoromethoxy)-3-fluorophenyl]-6-(2-ethyl-4-fluoro-1H-benzimidazol-1-yl)-1,3,5-triazine-2,4-diamine]"
13,100 to 3000,"Nc1nc(Nc2ccc(C(F)(F)F)c(F)c2)nc(-c2c(C(F)(F)F)nc3ccccn23)n1 [Cpd 71, N-[3-fluoro-4-(trifluoromethyl)phenyl]-6-[2-(trifluoromethyl)imidazo[1,2-a]pyridin-3-yl]-1,3,5-triazine-2,4-diamine]"
14,10 to 100,"Nc1nc(Nc2ccc(OC(F)F)cc2)nc(-c2c(C(F)(F)F)nc3ccccn23)n1 [Cpd 72, N-[4-(difluoromethoxy)phenyl]-6-[2-(trifluoromethyl)imidazo[1,2-a]pyridin-3-yl]-1,3,5-triazine-2,4-diamine]"

# Source: patent US9975878B2, “Substituted triazine BMI-1 inhibitors” (PTC Therapeutics, Inc., priority 2013, dated 2018)
